Laboratory results published in patent EP0549040A1, “Methods of making 4" derivatives of 9-deoxo-8a-aza-8a-alkyl-8a-homoerythromycin A” (MERCK & CO. INC., priority 1991, dated 1993).
Converted amounts (≈) assume the structure as drawn. Read-outs that look alike come from different tables or passages of the source.

Key:
Assay in all cases: liquid turbidimetric microtiter MIC determination in broth media
Type in all cases: cell-based
[1] = tested on: Haemophilus influenzae MB 5363
Description: (§1) The antibacterial activities of the compounds of Examples 8 and 10 against a panel of aerobic Gram positive and negative bacteria is shown in the following Table. The assay employs a liquid turbidimetric microtiter method for the determination of the minimum inhibitory concentration (MIC) in broth media. […] The MIC is generally not an absolute value but rather a concentration range that falls within a two-fold dilution limit. Generally twelve two-fold dilutions of the test compound are employed with the initial concentration set at 128 mcg/ml.

[2] = tested on: Streptococcus pyogenes MB 2874
Description: as §1

[3] = tested on: Haemophilus influenzae AT 43163
Description: as §1

[4] = tested on: Staphylococcus aureus MB 2865
Description: as §1

[5] = tested on: Streptococcus pneumoniae CL 2883
Description: as §1

[6] = tested on: Enterococcus faecalis MB 5407
Description: as §1

[7] = tested on: Klebsiella pneumoniae MB 4005
Description: as §1

Escherichia coli MB 2884 = tested on: Escherichia coli MB 2884
Description: as §1

[8] = tested on: Staphylococcus epidermidis MB 5414
Description: as §1

[9] = tested on: Enterobacter cloacae CL 4298
Description: as §1

[10] = tested on: Streptococcus pyogenes MB 54061; details: MB54061, Table I
Description: as §1

[11] = tested on: Enterococcus faecium MB 5416; details: MB5416, Table I
Description: as §1

[12] = tested on: Pseudomonas stutzeri MB 1231; details: Stutzerimonas stutzeri, MB1231, Table I
Description: as §1

[13] = tested on: Staphylococcus haemolyticus MB 5412; details: MB5412, Table I
Description: as §1

Escherichia coli MB 4926 = details: MB4926, Table I
Description: as §1

[14] = tested on: Steptococcus viridans CL 2943; details: Table I
Description: as §1

[15] = tested on: Streptococcus agalactiae CL 1343; details: CL1343, Table I
Description: as §1

[16] = MB5363, Table II, MIC, Haemophilus influenzae MB 5363, read-out: In vitro Activity
[17] = MB2874, Table II, MIC, Streptococcus pyogenes MB 2874, read-out: In vitro Activity
[18] = AT43163, Table II, MIC, Haemophilus influenzae AT 43163, read-out: In vitro Activity
[19] = MB2865, Table II, MIC, Staphylococcus aureus MB 2865, read-out: In vitro Activity
[20] = CL2883, Table II, MIC, Streptococcus pneumoniae CL 2883, read-out: In vitro Activity
[21] = MB5407, Table II, MIC, Enterococcus faecalis MB 5407, read-out: In vitro Activity
[22] = MB4005, Table II, MIC, Klebsiella pneumoniae MB 4005, read-out: In vitro Activity
[23] = MB2884, Table II, MIC, read-out: In vitro Activity
[24] = MB5414, Table II, MIC, Staphylococcus epidermidis MB 5414, read-out: In vitro Activity
[25] = CL4298, Table II, MIC, Enterobacter cloacae CL 4298, read-out: In vitro Activity
[26] = MB2874, Table I, Streptococcus pyogenes MB 2874, read-out: MIC Values
[27] = MB2865, Table I, Staphylococcus aureus MB 2865, read-out: MIC Values
[28] = CL2883, Table I, Streptococcus pneumoniae CL 2883, read-out: MIC Values
[29] = MB5407, Table I, Enterococcus faecalis MB 5407, read-out: MIC Values
[30] = MB4005, Table I, Klebsiella pneumoniae MB 4005, read-out: MIC Values
[31] = MB2884, Table I, read-out: MIC Values
[32] = MB5414, Table I, Staphylococcus epidermidis MB 5414, read-out: MIC Values

`CC[C@H]1OC(=O)[C@H](C)[C@@H](O[C@H]2C[C@@](C)(OC)C(N)[C@H](C)O2)[C@H](C)[C@@H](O[C@@H]2O[C@H](C)C[C@H](N(C)C)[C@H]2O)[C@](C)(O)C[C@@H](C)N(C)C[C@H](C)[C@@H](O)[C@]1(C)O` (stereo partly drawn) [Example 17, 4''-Deoxy-4''-amino-9-deoxo-8a-aza-8a-methyl-8a-homoerythromycin A] was tested, and the MIC [1, 16] was 0.5 µg/mL (≈ 0.668 µM), the MIC [2, 17] was ≤ 0.06 µg/mL and the MIC [3, 18] was 0.25 µg/mL (≈ 0.334 µM). For the same molecule, the MIC [4, 19] was 1 µg/mL (≈ 1.34 µM), the MIC [5, 20] was ≤ 0.06 µg/mL and the MIC [6, 21] was 4 µg/mL (≈ 5.35 µM). It also gave an MIC [7, 22] of 0.12 µg/mL (≈ 0.16 µM), an MIC (Escherichia coli MB 2884; [23]) of 0.12 µg/mL (≈ 0.16 µM) and an MIC [8, 24] of 0.5 µg/mL (≈ 0.668 µM). For the same molecule, the MIC [9, 25] was ≤ 0.06 µg/mL.
For `CC[C@H]1OC(=O)[C@H](C)[C@@H](O[C@H]2C[C@@](C)(OC)[C@@H](O)[C@H](C)O2)[C@H](C)[C@@H](O[C@@H]2O[C@H](C)C[C@H](N(C)C)[C@H]2O)[C@](C)(O)C[C@@H](C)NC[C@H](C)[C@@H](O)[C@]1(C)O` [Example 9, 9-Deoxo-8a-aza-8a-homoerythromycin A], the MIC [10] was 128 µg/mL (≈ 174 µM), the MIC [2, 26] was ≤ 0.06 µg/mL and the MIC [11] was 0.25 µg/mL (≈ 0.34 µM). For the same molecule, the MIC [12] was ≤ 0.06 µg/mL, the MIC [4, 27] was 0.5 µg/mL (≈ 0.68 µM) and the MIC [13] was 0.5 µg/mL (≈ 0.68 µM). The MIC [5, 28] was ≤ 0.06 µg/mL, the MIC [6, 29] was 8 µg/mL (≈ 10.9 µM) and the MIC (Escherichia coli MB 4926) was 2 µg/mL (≈ 2.72 µM). The MIC [7, 30] was 8 µg/mL (≈ 10.9 µM), the MIC (Escherichia coli MB 2884; [31]) was 4 µg/mL (≈ 5.44 µM) and the MIC [14] was 8 µg/mL (≈ 10.9 µM). For the same molecule, the MIC [8, 32] was 1 µg/mL (≈ 1.36 µM) and the MIC [15] was ≤ 0.06 µg/mL.
In the case of `CC[C@H]1OC(=O)[C@H](C)[C@@H](O[C@H]2C[C@@](C)(OC)[C@@H](N)[C@H](C)O2)[C@H](C)[C@@H](O[C@@H]2O[C@H](C)C[C@H](N(C)C)[C@H]2O)[C@](C)(O)C[C@@H](C)N(C)C[C@H](C)[C@@H](O)[C@]1(C)O` [Example 19, 4''-Deoxy-4''-(S) - amino-9-deoxo-8a-aza-8a-methyl-8a-homoerythromycin A], the MIC [1, 16] is reported as 0.25 µg/mL (≈ 0.334 µM), the MIC [2, 17] is reported as ≤ 0.06 µg/mL and the MIC [3, 18] is reported as 0.25 µg/mL (≈ 0.334 µM). For the same molecule, the MIC [4, 19] was 1 µg/mL (≈ 1.34 µM), the MIC [5, 20] was ≤ 0.06 µg/mL and the MIC [6, 21] was 2 µg/mL (≈ 2.67 µM). It also gave an MIC [7, 22] of 0.12 µg/mL (≈ 0.16 µM), an MIC (Escherichia coli MB 2884; [23]) of 0.12 µg/mL (≈ 0.16 µM) and an MIC [8, 24] of 0.51 µg/mL (≈ 0.682 µM). For the same molecule, the MIC [9, 25] was ≤ 0.06 µg/mL.
`CC[C@H]1OC(=O)[C@H](C)[C@@H](O[C@H]2C[C@@](C)(OC)[C@H](N)[C@H](C)O2)[C@H](C)[C@@H](O[C@@H]2O[C@H](C)C[C@H](N(C)C)[C@H]2O)[C@](C)(O)C[C@@H](C)N(C)C[C@H](C)[C@@H](O)[C@]1(C)O` [Example 20, 4''-Deoxy-4''-(R) - amino-9-deoxo-8a-aza-8a-methyl-8a-homoerythromycin A] was tested, and the MIC [1, 16] was 0.5 µg/mL (≈ 0.668 µM), the MIC [2, 17] was ≤ 0.06 µg/mL and the MIC [3, 18] was 0.25 µg/mL (≈ 0.334 µM). The MIC [4, 19] was 1 µg/mL (≈ 1.34 µM), the MIC [5, 20] was ≤ 0.06 µg/mL and the MIC [6, 21] was 2 µg/mL (≈ 2.67 µM). For the same molecule, the MIC [7, 22] was 0.25 µg/mL (≈ 0.334 µM), the MIC (Escherichia coli MB 2884; [23]) was 0.25 µg/mL (≈ 0.334 µM) and the MIC [8, 24] was 0.5 µg/mL (≈ 0.668 µM). It also gave an MIC [9, 25] of 0.12 µg/mL (≈ 0.16 µM).
With `CC[C@H]1OC(=O)[C@H](C)[C@@H](O[C@H]2C[C@@](C)(OC)[C@@H](O)[C@H](C)O2)[C@H](C)[C@@H](O[C@@H]2O[C@H](C)C[C@H](N(C)C)[C@H]2O)[C@](C)(O)C[C@@H](C)N(C)C[C@H](C)[C@@H](O)[C@]1(C)O` [Example 10, 9-Deoxo-8a-aza-8a-methyl-8a-homoerythromycin A] the MIC [10] was 128 µg/mL (≈ 171 µM), the MIC [2, 26] was ≤ 0.06 µg/mL and the MIC [11] was 0.25 µg/mL (≈ 0.334 µM). The MIC [12] was ≤ 0.06 µg/mL, the MIC [4, 27] was 0.5 µg/mL (≈ 0.668 µM) and the MIC [13] was 0.5 µg/mL (≈ 0.668 µM). The MIC [5, 28] was ≤ 0.06 µg/mL, the MIC [6, 29] was 4 µg/mL (≈ 5.34 µM) and the MIC (Escherichia coli MB 4926) was 0.06 µg/mL (≈ 0.0801 µM). It also gave an MIC [7, 30] of 2 µg/mL (≈ 2.67 µM), an MIC (Escherichia coli MB 2884; [31]) of 1 µg/mL (≈ 1.34 µM) and an MIC [14] of 1 µg/mL (≈ 1.34 µM). The MIC [8, 32] was 1 µg/mL (≈ 1.34 µM) and the MIC [15] was ≤ 0.06 µg/mL.
“4''-epi-9-deoxo-8a-aza-8a-methyl-8a-homoerythromycin A [Example 15]” was tested, and the “In vitro Activity” value ([1]; Table II, MIC, Haemophilus influenzae MB 5363) was 0.5 µg/mL, the “In vitro Activity” value ([2]; Table II, MIC, Streptococcus pyogenes MB 2874) was “≦0.06 mcg/ml” and the “In vitro Activity” value ([3]; Table II, MIC, Haemophilus influenzae AT 43163) was 0.5 µg/mL. For the same molecule, the “In vitro Activity” value ([4]; Table II, MIC, Staphylococcus aureus MB 2865) was 0.5 µg/mL, the “In vitro Activity” value ([5]; Table II, MIC, Streptococcus pneumoniae CL 2883) was “≦0.06 mcg/ml” and the “In vitro Activity” value ([6]; Table II, MIC, Enterococcus faecalis MB 5407) was 1 µg/mL. For the same molecule, the “In vitro Activity” value ([7]; Table II, MIC, Klebsiella pneumoniae MB 4005) was 1 µg/mL, the “In vitro Activity” value (Escherichia coli MB 2884; Table II, MIC) was 1 µg/mL and the “In vitro Activity” value ([8]; Table II, MIC, Staphylococcus epidermidis MB 5414) was 0.25 µg/mL. The “In vitro Activity” value ([9]; Table II, MIC, Enterobacter cloacae CL 4298) was 0.5 µg/mL.
For `CC[C@H]1OC(=O)[C@H](C)[C@@H](O[C@H]2C[C@@](C)(OC)[C@@H](O)[C@H](C)O2)[C@H](C)[C@@H](O[C@@H]2O[C@H](C)C[C@H](N(C)C)[C@H]2O)[C@](C)(O)C[C@@H](C)C(=O)[C@H](C)[C@@H](O)[C@]1(C)O` [Erythromycin A, erythromycin A], the MIC ([1]; Haemophilus influenzae, MB5363, read-out: In vitro Activity) was 2 µg/mL (≈ 2.73 µM), the MIC ([2]; Streptococcus pyogenes, MB2874, read-out: In vitro Activity) was ≤ 0.06 µg/mL and the MIC ([3]; Haemophilus influenzae, AT43163, read-out: In vitro Activity) was 2 µg/mL (≈ 2.73 µM). The MIC ([4]; Staphylococcus aureus, MB2865, read-out: In vitro Activity) was 0.12 µg/mL (≈ 0.164 µM), the MIC ([5]; Streptococcus pneumoniae, CL2883, read-out: In vitro Activity) was ≤ 0.06 µg/mL and the MIC ([6]; Enterococcus faecalis, MB5407, read-out: In vitro Activity) was 1 µg/mL (≈ 1.36 µM). It also gave an MIC ([7]; Klebsiella pneumoniae, MB4005, read-out: In vitro Activity) of 32 µg/mL (≈ 43.6 µM), an MIC (Escherichia coli MB 2884; [23]) of 16 µg/mL (≈ 21.8 µM) and an MIC ([8]; Staphylococcus epidermidis, MB5414, read-out: In vitro Activity) of 0.12 µg/mL (≈ 0.164 µM). For the same molecule, the MIC ([9]; Enterobacter cloacae, CL4298, read-out: In vitro Activity) was 16 µg/mL (≈ 21.8 µM).
